Experiment [1] relates to Intraluminal pressure in the Heidenhain pouch. Kind of experiment: Intraluminal pressure in the Heidenhain pouch of the dog (increase in amplitude of rhythmical contractions). The format is in vivo. The settings on record: Canis lupus familiaris, iv, fasted lightly restrained conscious, increase in amplitude of rhythmical contractions for at least 4-5 minutes. As for the experimental part: 2. Intraluminal pressure in the Heidenhain pouch of the dog
Pressure changes were recorded via a saline filled catheter inserted, with airtight closure, into the fistula of a chronic Heidenhain pouch of the previously fasted and lightly restrained conscious dog. The catheter was connected to a physiological pressure transducer and pressure changes recorded on a hot wire pen recorder. Compounds were administered when the motility was in a phase of relatively low activity and the dose range determined which induced an increase in the amplitude of rhythmical contractions for a period of at least 4-5 minutes.

Experiment [2] deals with Intragastric pressure. As to the kind of experiment: Intragastric pressure in the rat (gastric motility, fasted conscious restrained rats). The class given is in vivo. The settings on record: sc, 40 min, s.c., intragastric pressure waves, 40 minute period following dosing. As for the experimental part: 1. Intragastric pressure in the rat
Intragastric pressure changes were recorded from fasted conscious and restrained rats using a saline filled catheter inserted into the lumen of the stomach via a permanent gastric fistula. The catheter was connected to a physiological pressure transducer and pressure changes recorded on a hot wire pen recorder. An index of activity was obtained by measuring the average height of pressure waves during 10 minute periods. Values for 4 such periods were obtained during assessment of spontaneous activity prior to dosing and for the 40 minute period following dosing with compound or vehicle. The Student's "t" test was applied to the mean values obtained for activity prior to and post treatment. Groups of 10 animals were used for each treatment.

Structures are written as SMILES.

The ED50 is the midpoint of the dose-response relation. Lower therefore signals greater potency.

As to `CCN1CC2CCC(C1)C2NC(=O)c1cc(Cl)c(N)cc1OC` (racemic) [Example E5, (±)(8β)-4-Amino-5-chloro-2-methoxy-N-(3-ethyl-3-azabicyclo[3,2,1]octan-8-yl)benzamide], the median effective dose (ED50) in experiment [1] was 0.01 mg/kg.
On the same count and under the same terms, in the case of `COc1cc(N)c(Cl)cc1C(=O)NC1C2CCC1CN(C)C2` (racemic) [Example E1, (±) (8β)-4-Amino-5-chloro-2-methoxy-N-(3-methyl-3-azabicyclo[3,2,1]octan-8-yl)benzamide] it was 0.05 mg/kg.
`COc1cc(N)c(Cl)cc1C(=O)NC1C2CCC1CN(C)C2` (racemic) [Example E2, (±) (8α)-4-Amino-5-chloro-2-methoxy-N-(3-methyl-3azabicyclo[3,2,1]octan-8-yl)benzamide]: the ED50 in experiment [2] was 0.5 mg/kg.

Values taken from patent US4719217A, “Certain N-azabicycloalkyl-benzamides useful in the treatment of impaired gastro-intestinal motility or emesis” (Beecham Group p.l.c., priority 1985, dated 1988).
